System: 653999-131-R-J2-PDC complex spheroids, growth % test/control
Assay: Anticancer human tumor 653999-131-R-J2-PDC patient-derived lung adenocarcinoma cell line growth inhibition [AhR]
Conditions: for IC50: curve of first compound; for viability, T/C: stronger effect = lower value
Source text: Multicellular complex tumor spheroid response to aryl hydrocarbon receptor antagonists in combination with a variety of drugs and investigational agents in selected tumor cell lines
The current study was undertaken to assess response to aryl hydrocarbon receptor antagonists in combination with standard-of-care drugs and investigational agents in solid tumor complex spheroid models. Complex spheroids include a stromal component modeled by human endothelial cells (HUVEC) and fibroblasts modeled by human mesenchymal stem cells (MSCs). The concentration ranges selected for each drug and investigational agent were based upon clinically achievable concentrations if the clinical Cmax of the agent was known.
Compounds. The drugs and investigational agents: BAY 2416964 (NSC825713), GNF351 (NSC835774), CH-223191 (NSC835775), CPI-455 (NSC825282), aza-TdCyd (NSC777586), decitabine (NSC127716), belinostat (NSC758774), entinostat (NSC756642), pevonedistat (NSC761192), tazemetostat (NSC777109), talazoparib (NSC765396), olaparib (NSC753686), selinexor (NSC780203), nedisertib (M3814, NSC802822), bortezomib (NSC756655), venetoclax (NSC766270), doxorubicin (NSC123127), elimusertib (BAY189344, NSC800525), ceralasertib (AZD6738, NSC777638), TAK-243 (NSC785004), alisertib (NSC759677), etoposide (NSC141540), topotecan (NSC609699), eribulin (NSC707389), gemcitabine (NSC613327), carboplatin (NSC241240), cisplatin (NSC119875), and SN-38 (NSC673596) were obtained from the National Cancer Institute (NCI) Developmental Therapeutics Program Chemical Repository (32). The FDA-approved anticancer drug set is available from the Developmental Therapeutics Program at https://dtp.cancer.gov/organization/dscb/obtaining/available plates.htm. […] The stock solutions were prepared in dimethyl sulfoxide (DMSO, Sigma-Aldrich, St. Louis, MO, cat. D2650), except for the platinum compounds which were prepared in saline (Quality Biological, Gaithersburg, MD, cat. 114-055-101), at 800-fold the tested concentration and stored at -70 degrees C prior to their use. All drugs and investigational agents were tested over a range starting from a high concentration at or near the clinical Cmax and decreasing in half-log increments. If the clinical Cmax for an agent had not been determined, the highest concentration tested was 10 microM (Table 1).
Cell Culture. All cells were maintained in an incubator at 37 degrees C and 5% CO2 with 95% humidity. The PDC lines were cultured according to standard operating procedures established by the NCI PDMR (https://pdmr.cancer.gov). Briefly, all PDCs were thawed and cultured in Matrigel-coated flasks prepared with a working solution of 1X Ham's F-12 nutrient mix, without supplementation (Invitrogen, Waltham, MA, cat. 11765054), 100 U/mL penicillin-streptomycin (Invitrogen, cat. 15140122), and 2.5% Matrigel (Corning Inc., Corning, NY, cat. 354248) for the first three passages. All PDCs were cultured in complete DMEM/F-12 media containing advanced DMEM/F-12 (Invitrogen, cat. 12634028), 4.9% defined fetal bovine serum, heat inactivated (HyClone Laboratories Inc., Logan, UT, cat. SH30070.03HI), 389 ng/mL hydrocortisone (Sigma-Aldrich, cat. H4001), 9.7 ng/mL human EGF recombinant protein (Invitrogen, cat. PHG0313), 23.4 microg/mL adenine (Sigma-Aldrich, cat. A2786), 97.3 U/mL penicillin-streptomycin (Invitrogen, cat. 15140122), 1.9 mM L-glutamine (Invitrogen, cat. 25030081), and 9.7 microM Y-27632 dihydrochloride (Tocris Bioscience, Bristol, United Kingdom, cat. 1254). The PDCs were cultured in complete DMEM/F12 media without 10 microM Y-27632 dihydrochloride for at least two passages prior to the screen. The established cell lines NCI-H1341 and […] were cultured in DMEM/F-12, HEPES (Invitrogen, cat. 11330032), 5% defined fetal bovine serum (HyClone Laboratories Inc., cat. SH30070.03), ITS premix universal culture supplement [insulin (5 microg/mL), transferrin (5 microg/mL), and selenious acid (5 ng/mL)] […]

[1] = second compound 0.1 µM, first compound 0.00316 µM
[2] = second compound 0.1 µM, first compound 0.01 µM
[3] = second compound 0.1 µM, first compound 0.0316 µM
[4] = second compound 0.1 µM, first compound 0.1 µM
[5] = second compound 0.1 µM, first compound 0.316 µM
[6] = second compound 0.1 µM, first compound 1 µM
[7] = second compound 0.316 µM, first compound 0.00316 µM
[8] = second compound 0.316 µM, first compound 0.01 µM
[9] = second compound 0.316 µM, first compound 0.0316 µM
[10] = second compound 0.316 µM, first compound 0.1 µM
[11] = second compound 0.316 µM, first compound 0.316 µM
[12] = second compound 0.316 µM, first compound 1 µM
[13] = second compound 1 µM, first compound 0.00316 µM
[14] = second compound 1 µM, first compound 0.01 µM
[15] = second compound 1 µM, first compound 0.0316 µM
[16] = second compound 1 µM, first compound 0.1 µM
[17] = second compound 1 µM, first compound 0.316 µM
[18] = second compound 1 µM, first compound 1 µM
[19] = second compound 3.16 µM, first compound 0.00316 µM
[20] = second compound 3.16 µM, first compound 0.01 µM
[21] = second compound 3.16 µM, first compound 0.0316 µM
[22] = second compound 3.16 µM, first compound 0.1 µM
[23] = second compound 3.16 µM, first compound 0.316 µM
[24] = second compound 3.16 µM, first compound 1 µM
[25] = second compound 10 µM, first compound 0.00316 µM
[26] = second compound 10 µM, first compound 0.01 µM
[27] = second compound 10 µM, first compound 0.0316 µM
[28] = second compound 10 µM, first compound 0.1 µM
[29] = second compound 10 µM, first compound 0.316 µM
[30] = second compound 10 µM, first compound 1 µM
[31] = second compound 0.1 µM, first compound 3.16 µM
[32] = second compound 0.1 µM, first compound 10 µM
[33] = second compound 0.316 µM, first compound 3.16 µM
[34] = second compound 0.316 µM, first compound 10 µM
[35] = second compound 1 µM, first compound 3.16 µM
[36] = second compound 1 µM, first compound 10 µM
[37] = second compound 3.16 µM, first compound 3.16 µM
[38] = second compound 3.16 µM, first compound 10 µM
[39] = second compound 10 µM, first compound 3.16 µM
[40] = second compound 10 µM, first compound 10 µM
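Note: spheroids exposed to agents for seven days.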

IC50 (second compound 0.1 µM) | IC50 (second compound 0.316 µM) | IC50 (second compound 1 µM) | IC50 (second compound 3.16 µM) | IC50 (second compound 10 µM) | Compound | viability, T/C [3] | viability, T/C [4] | viability, T/C [5] | viability, T/C [6] | viability, T/C [9] | viability, T/C [10] | viability, T/C [11] | viability, T/C [12] | viability, T/C [15] | viability, T/C [16] | viability, T/C [17] | viability, T/C [18] | viability, T/C [21] | viability, T/C [22] | viability, T/C [23] | other results
123 nM | 129 nM | 170 nM | 149 nM | < 3.16 nM | CC1COCCN1c1cc(-c2ccnn2C)c2ccnc(-c3ccn[nH]3)c2n1 (stereo not given) + Cc1cncc(-c2nc(NCCc3c[nH]c4ccccc34)c3ncn(C(C)C)c3n2)c1 | 76.3% | 52.3% | 36.7% | 25.2% | 84.8% | 53.5% | 35.5% | 26.4% | 89.5% | 65.6% | 31.6% | 23.5% | 89.6% | 56.2% | 38.5% | viability, T/C [1]: 100%; viability, T/C [2]: 94.6%; viability, T/C [7]: 92.8%; viability, T/C [8]: 92.4%; viability, T/C [13]: 107%; viability, T/C [14]: 96.3%; viability, T/C [19]: 98.2%; viability, T/C [20]: 98.1%; viability, T/C [24]: 29.1%; viability, T/C [25]: 36.8%; viability, T/C [26]: 46.9%; viability, T/C [27]: 38%; viability, T/C [28]: 34.6%; viability, T/C [29]: 25.7%; viability, T/C [30]: 27%
162 nM | 134 nM | 168 nM | 100 nM | 53.6 nM | CC1COCCN1c1cc(-c2ccnn2C)c2ccnc(-c3ccn[nH]3)c2n1 (stereo not given) + CC(CO)NC(=O)c1cc(-c2ccc(Cl)cc2)nn(-c2cnn(C)c2)c1=O | 94% | 60.2% | 36.4% | 28.4% | 76.1% | 56.5% | 36.3% | 27.9% | 80.6% | 60.1% | 39.5% | 30.4% | 89.9% | 49.9% | 35.6% | viability, T/C [1]: 102%; viability, T/C [2]: 101%; viability, T/C [7]: 103%; viability, T/C [8]: 103%; viability, T/C [13]: 97.3%; viability, T/C [14]: 105%; viability, T/C [19]: 94%; viability, T/C [20]: 97.7%; viability, T/C [24]: 32.9%; viability, T/C [25]: 92.3%; viability, T/C [26]: 86.4%; viability, T/C [27]: 57%; viability, T/C [28]: 41.5%; viability, T/C [29]: 30.7%; viability, T/C [30]: 29.2%
3730 nM | 3660 nM | 4130 nM | 3520 nM | 3640 nM | O=C(C=Cc1cccc(S(=O)(=O)Nc2ccccc2)c1)NO + CC(CO)NC(=O)c1cc(-c2ccc(Cl)cc2)nn(-c2cnn(C)c2)c1=O | 102% | 102% | 100% | 91.8% | 109% | 117% | 95.9% | 96.3% | 108% | 104% | 114% | 98.5% | 107% | 114% | 105% | viability, T/C [31]: 57.3%; viability, T/C [32]: 6.62%; viability, T/C [33]: 55%; viability, T/C [34]: 7.7%; viability, T/C [35]: 63.4%; viability, T/C [36]: 6.59%; viability, T/C [24]: 90.2%; viability, T/C [37]: 54.3%; viability, T/C [38]: 10.5%; viability, T/C [27]: 107%; viability, T/C [28]: 111%; viability, T/C [29]: 105%; viability, T/C [30]: 100%; viability, T/C [39]: 56.2%; viability, T/C [40]: 4.99%
8430 nM | 9850 nM | > 10000 nM | 9800 nM | 2700 nM | CC1COCCN1c1cc(C2(S(C)(=N)=O)CC2)nc(-c2ccnc3[nH]ccc23)n1 (stereo not given) + Cc1cncc(-c2nc(NCCc3c[nH]c4ccccc34)c3ncn(C(C)C)c3n2)c1 | 105% | 102% | 94.7% | 104% | 103% | 111% | 108% | 94.8% | 107% | 110% | 124% | 104% | 101% | 111% | 112% | viability, T/C [31]: 86.1%; viability, T/C [32]: 43.7%; viability, T/C [33]: 82%; viability, T/C [34]: 49.5%; viability, T/C [35]: 87.1%; viability, T/C [36]: 55.1%; viability, T/C [24]: 99%; viability, T/C [37]: 85%; viability, T/C [38]: 49.2%; viability, T/C [27]: 71.4%; viability, T/C [28]: 70.6%; viability, T/C [29]: 64.5%; viability, T/C [30]: 56.1%; viability, T/C [39]: 49.6%; viability, T/C [40]: 44.2%

Reference: PubChem BioAssay AID1919000 (Molecular Pharmacology Branch, DTP, NCI, 2023)
